Results reported in patent US20230321054A1, “COMPOSITIONS AND METHODS FOR CANCER AND TUMOR TREATMENT” (Washington University, priority 2022, published 2023).
Entries after “also recorded” stand apart in the source; their conditions may differ.

Experiments:
[1] = tested on: tumor-liver alanine cycle; assay: [U-13C] glucose isotope tracing / LC/MS metabolomics in drug-treated BRAF/p53 zebrafish (tumor-liver alanine cycling); assay type: in vivo
Procedure: For all isotope tracing experiments, zebrafish were fasted for 24 h to empty the digestive tract prior to labeling. […] During steady-state labeling experiments, zebrafish were allowed to swim freely in facility water containing the corresponding stable isotopes at the aforementioned concentrations, in addition to 2% penicillin/streptomycin (Life Technologies). For isotope tracing via intraperitoneal injection, zebrafish were injected using a previously described method. Briefly, anesthetized fish were quickly dried and weighed. Zebrafish were then placed into the trough of a wet precut sponge, with the abdomen facing up and gills secured in the trough. A 35G beveled needle and NanoFil 10 µL syringe (World Precision Instruments) was carefully inserted midline near the pelvic girdle, and a [U-^13C] glucose treatment solution (0.5 mg/g) was slowly dispensed. After injection, fish were placed in 28° C. facility water and monitored for recovery from anesthesia (typically 5-10 seconds). Throughout the experiment, each fish was kept in an individual tank to allow for tracking.
To extract metabolites from serum, samples were diluted 1:15 with methanol:acetonitrile:water (2:2:1) at -20° C., vortexed for 10 s, and incubated at -20° C. for 1 h. Following incubation, metabolite extracts were centrifuged at 20,000 g and 4° C. for 10 min, and the supernatant was transferred into an LC/MS vial for same-day analysis. To extract metabolites from zebrafish tissues, frozen samples were ground in 1.5 mL microcentrifuge tubes with a disposable pellet pestle (Fisherbrand). The pellet pestle was placed in liquid nitrogen prior to sample grinding, and the microcentrifuge tube (containing tissue) was submerged in liquid nitrogen for the entirety of tissue grinding. […] The powderized tissue was mixed with -20° C. methanol:acetonitrile:water (2:2:1) and subjected to two cycles of freezing in liquid nitrogen (1 min), thawing in 25° C. water (10 s), sonication (5 min), and vortexing (30 s). Samples were then incubated at -20° C. for 1 h. […]

[2] = tested on: alanine cycling in WT zebrafish; assay: [U-13C] glucose isotope tracing in vemurafenib-treated WT zebrafish; assay type: in vivo; conditions: 100 mg/kg/day, 4 consecutive days, vs vehicle
Procedure: For all isotope tracing experiments, zebrafish were fasted for 24 h to empty the digestive tract prior to labeling. To determine the [U-^13C] glucose concentration for isotopic steady-state labeling, concentrations between 5 - 20 mM were tested. […] Similarly, concentrations between 1 - 10 mM of [U-^13C] glutamine were tested for steady-state labeling. […] For ^15N-BCAA labeling experiments, 2 mM each [^15N] leucine, [^15N] isoleucine, and [^15N] valine were concurrently supplemented to facility water. For ^13C-BCAA labeling experiments, 4 mM each of [U-^13C] leucine, [U-^13C] isoleucine, and [U-^13C] valine were concurrently supplemented to facility water. During steady-state labeling experiments, zebrafish were allowed to swim freely in facility water containing the corresponding stable isotopes at the aforementioned concentrations, in addition to 2% penicillin/streptomycin (Life Technologies). For isotope tracing via intraperitoneal injection, zebrafish were injected using a previously described method. Briefly, anesthetized fish were quickly dried and weighed. Zebrafish were then placed into the trough of a wet precut sponge, with the abdomen facing up and gills secured in the trough. […] After injection, fish were placed in 28° C. facility water and monitored for recovery from anesthesia (typically 5-10 seconds). […]

[3] = tested on: melanoma tumors of BRAF/p53 zebrafish; assay: Tumor size by digital calipers in melanoma-bearing BRAF/p53 zebrafish; assay type: in vivo
Procedure: Wild-type (WT) fish were inbred AB strain (sjA). p53-/- and transgenic mitfa-BRAFV600E¬ lines were crossed to produce melanoma-bearing fish (referred to as BRAF/p53), using a previously described method. All fish were reared according to standard laboratory procedures. Fish were kept in an indoor environment at a temperature of 28 ± 1° C. with a 14:10-h light:dark circadian cycle. Both female and male fish were used for experiments at random. Experiments were conducted with age-matched animals (i.e., within 2 weeks of age). To assay tumor growth, melanoma dimensions were measured by using digital calipers. Tumor size was approximated as the volume of a half ellipsoid, ⅔ πabc, where a, b, and c represent the radii of tumor length, width, and height respectively.
Vemurafenib was dissolved in DMSO, and vemurafenib solution or DMSO alone (vehicle) was delivered via intraperitoneal injection following a previously described protocol detailed above. Throughout the experiment, each fish was kept in an individual tank to allow for tracking. […]

[4] = humans, mice, and zebrafish; cited from earlier work
[5] = tested on: alanine aminotransferase (ALT); assay: [U-13C] BCAA labeling and metabolite pool sizes after ALT inhibition in BRAF/p53 zebrafish; assay type: in vivo; conditions: 600 µM in water, 10 days, vs vehicle
Procedure: For all isotope tracing experiments, zebrafish were fasted for 24 h to empty the digestive tract prior to labeling. To determine the [U-^13C] glucose concentration for isotopic steady-state labeling, concentrations between 5 - 20 mM were tested. […] Similarly, concentrations between 1 - 10 mM of [U-^13C] glutamine were tested for steady-state labeling. […] For ^15N-BCAA labeling experiments, 2 mM each [^15N] leucine, [^15N] isoleucine, and [^15N] valine were concurrently supplemented to facility water. For ^13C-BCAA labeling experiments, 4 mM each of [U-^13C] leucine, [U-^13C] isoleucine, and [U-^13C] valine were concurrently supplemented to facility water. During steady-state labeling experiments, zebrafish were allowed to swim freely in facility water containing the corresponding stable isotopes at the aforementioned concentrations, in addition to 2% penicillin/streptomycin (Life Technologies). For isotope tracing via intraperitoneal injection, zebrafish were injected using a previously described method. Briefly, anesthetized fish were quickly dried and weighed. Zebrafish were then placed into the trough of a wet precut sponge, with the abdomen facing up and gills secured in the trough. A 35G beveled needle and NanoFil 10 µL syringe (World Precision Instruments) was carefully inserted midline near the pelvic girdle, and a [U-^13C] glucose treatment solution (0.5 mg/g) was slowly dispensed. After injection, fish were placed in 28° C. facility water and monitored for recovery from anesthesia (typically 5-10 seconds). Throughout the experiment, each fish was kept in an individual tank to allow for tracking.
To extract metabolites from serum, samples were diluted 1:15 with methanol:acetonitrile:water (2:2:1) at -20° C., vortexed for 10 s, and incubated at -20° C. for 1 h. Following incubation, metabolite extracts were centrifuged at 20,000 g and 4° C. for 10 min, and the supernatant was transferred into an LC/MS vial for same-day analysis. To extract metabolites from zebrafish tissues, frozen samples were ground in 1.5 mL microcentrifuge tubes with a disposable pellet pestle (Fisherbrand). The pellet pestle was placed in liquid nitrogen prior to sample grinding, and the microcentrifuge tube (containing tissue) was submerged in liquid nitrogen for the entirety of tissue grinding. We note that microcentrifuge tubes were labeled and weighed prior to tissue harvest and then weighed again following tissue grinding. The powderized tissue was mixed with -20° C. methanol:acetonitrile:water (2:2:1) and subjected to two cycles of freezing in liquid nitrogen (1 min), thawing in 25° C. water (10 s), sonication (5 min), and vortexing (30 s). Samples were then incubated at -20° C. for 1 h. For every 1 mg of tissue wet weight, 40 µL of extraction solvent was added. Following protein precipitation, tissue extracts were centrifuged at 20,000 g and 4° C. for 10 min, and the supernatant was transferred into an LC/MS vial for same-day analysis.
Ultra-high performance LC (UHPLC)/MS was performed with a Thermo Scientific Vanquish Horizon UHPLC system interfaced with a Thermo Scientific Orbitrap ID-X Tribrid Mass Spectrometer (Waltham, MA). Hydrophilic interaction liquid chromatography (HILIC) was conducted with a SeQuant ZIC-pHILIC guard column (20 mm × 2.1 mm, 5 µm) connected to a SeQuant ZIC-pHILIC column (100 mm × 2.1 mm, 5 µm; EMD Millipore, Burlington, MA). Chromatographic solvents were adapted from a previously described work. […]

[6] = 50 µM in tank water, 6 days, vs DMSO

Question: Which “alanine labeling in the tumor” value [1, 6] does the source give for `CCN(c1nc(N)c(C(=O)N=C(N)N)nc1Cl)C(C)C` [EIPA, 5-(N-ethyl-N-isopropyl)amiloride] here?
Answer: Its value is “did not affect”.

Question: What about the “hepatic gluconeogenesis (M3 labeling of glucose in the liver and serum)” value [1, 6] of the same compound?
Answer: Its value is “did not affect”.

Question: Which “13C-labeling in metabolites from the circulation, liver, or muscle” value [2] does the source give for `CCCS(=O)(=O)Nc1ccc(F)c(C(=O)c2c[nH]c3ncc(-c4ccc(Cl)cc4)cc23)c1F` [vemurafenib] here?
Answer: The value was “No differences; also recorded: does not lead to off-target metabolic effects”.

Question: And the “tumors reduced in size” value ([3]; 100 mg/kg/day i.p., after 10 days)?
Answer: Its value is greater than 95%.

Question: What about the toxicity and tolerability [4] of the same compound?
Answer: Its toxicity and tolerability is “minimal toxicity and high tolerability”.

Question: And the “reduction of M3 labeling of alanine in the tumor” value ([1]; 100 mg/kg/day i.p., 4 days, vs vehicle, 10 mM [U-13C] glucose 24 h)?
Answer: Its value is ~ 2 fold.

Question: What does the source list for `N[C@@H](CCl)C(=O)O` [β-chloroalanine, β-chloro-L-alanine]?
Answer: BCAAs in serum (pool size) [5]: accumulation; BCAAs in tumor (pool size) [5]: accumulation; contribution that [U-13C] BCAAs made to the TCA cycle in tumors [5]: significantly reduced; levels of alanine in tumor, serum, and liver [5]: decreased; levels of circulating glucose [5]: decreased; reduction in tumor size ([3]; β-chloroalanine in water, 10 days): 50%
